Conditions: Table 4
Protocol: Water solutions or suspensions of the complexes under investigation have been injected intraperitoneally 30÷60 min. before beginning of the experiment. Animals from the control group got equal amounts of physiological salt solution. High altitude hypoxia was made in special air tight chambers, in which a lift of the animals up to the altitude 10,000 m has been imitated by pumping out of air. A criterion of validity for the complexes was increase of mice life length and survivability of these.
Interferon inducing activity of the complexes has been studied with various methods, including the study with native leukocytes of human donor blood.
Antiinflammatory effect has been studied for animals according to the method by Ju. Strel'nikov. Experiments have been carried out with white mice of mass 20 g. Aseptic inflammation was caused by injection of 0.1 ml of 2.5% formalin solution into thigh thickness of an animal's paw. A compound under investigation was injected into the stomach in the dose equimolecular to 20 mg/kg of indometacin two hours before the injection of formalin. Distinction of the edema was estimated by increase of a mass of inflamed and uninflammed paws in experimental groups of animals compared to control ones. […] Simultaneously antiinflammatory activity of indometacin was studied for comparison.

| Structure (SMILES) | Expansion of Effect Spectrum for the Complex Medicament |
| --- | --- |
| C[CH2][Ge]12[O]CCN(CC[O]1)CC(=O)[O]2.O=c1[nH]c(=O)n([C@H]2C[C@H](O)[C@@H](CO)O2)cc1I [Idoxuridine OGC (R = C2H5, R1,R2 = O)] | - . - |
| O=c1[nH]c(=O)n(C2CC(O)C(CO)O2)cc1I.[OH][Ge]12[O]CCN(CC[O]1)CC[O]2 (stereo not shown) [Idoxuridine OGC (R = OH)] | - . - |
| O=c1[nH]c(=O)n([C@H]2C[C@H](O)[C@@H](CO)O2)cc1I.[SH][Ge]12[O]CCN(CC[O]1)CC[O]2 [Idoxuridine OGC (R = SH)] | - . - |
| NC12CC3CC(CC(C3)C1)C2.[OH][Ge]12[O]CCN(CC[O]1)CC[O]2 [Midantanum OGC (R = OH)] | - . - |
| NC12CC3CC(CC(C3)C1)C2.[SH][Ge]12[O]CCN(CC[O]1)CC[O]2 [Midantanum OGC (R = SH)] | - . - |
| CC(N)C12CC3CC(CC(C3)C1)C2.O=C1CN2CC[O][Ge]([OH])([O]CC2)[O]1 (stereo not shown) [Remantadinum OGC (R = OH, R1R2 = O)] | - . - |
| CC(N)C12CC3CC(CC(C3)C1)C2.[SH][Ge]12[O]CCN(CC[O]1)CC[O]2 (stereo not shown) [Remantadinum OGC (R = SH)] | - . - |
| Nc1ncnc2c1ncn2C1OC(CO)C(O)C1O.O=C1CN2CC[O][Ge]([OH])([O]CC2)[O]1 (stereo not shown) [Vidarabinum OGC (R = OH, R1,R2 = O)] | - . - |
| Nc1ncnc2c1ncn2C1OC(CO)C(O)C1O.[OH][Ge]12[O]CCN(CC[O]1)CC[O]2 (stereo not shown) [Vidarabinum OGC(R = OH)] | - . - |
| CC1CN2CC[O][Ge]([OH])([O]CC2)[O]1.Nc1ncnc2c1ncn2C1OC(CO)C(O)C1O (stereo not shown) [Vidarabinum OGC(R = OH, R1 = CH3)] | - . - |

Same assay, conditions: Table 5

| Structure (SMILES) | Expansion of Effect Spectrum for the Complex Medicament |
| --- | --- |
| N[C@@H](Cc1ccc(O)c(O)c1)C(=O)O.[OH][Ge]12[O]CCN(CC[O]1)CC[O]2 [Levodopa OGC (R = OH)] | - . - |
| CN1CCN(CCCN2c3ccccc3Sc3ccc(Cl)cc32)CC1.[OH][Ge]12[O]CCN(CC[O]1)CC[O]2 [Meterazinum OGC (R = OH)] | - . - |
| CN1CCN(CCCN2c3ccccc3Sc3ccc(Cl)cc32)CC1.[SH][Ge]12[O]CCN(CC[O]1)CC[O]2 [Meterazinum OGC (R = SH)] | - . - |
| CN1CCN=C(c2ccccc2)c2cc(Cl)ccc21.[CH3][Ge]12[O]CCN(CC(=O)[O]1)CC(=O)[O]2 [Mezapamun OGC (R = CH3) R1R2 = R5R6 = O)] | - . - |
| CN1CCN=C(c2ccccc2)c2cc(Cl)ccc21.[CH3][Ge]([CH3])([CH3])[O][Ge]12[O]CCN(CC[O]1)CC[O]2 [Mezapamun OGC (R = OGeMe3)] | - . - |
| CN1CCN=C(c2ccccc2)c2cc(Cl)ccc21.[OH][Ge]12[O]CCN(CC[O]1)CC[O]2 [Mezapamun OGC (R = OH)] | - . - |
| CN1CCN=C(c2ccccc2)c2cc(Cl)ccc21.C[Si](C)(C)[O][Ge]12[O]CCN(CC[O]1)CC[O]2 [Mezapamun OGC (R = OSiMe3)] | - . - |
| CN1CCN=C(c2ccccc2)c2cc(Cl)ccc21.O=C1CN2CC[O][Ge]([C]34CC5CC(CC(C5)C3)C4)([O]CC2)[O]1 [Mezapamun OGC (R = adamantyl, R1R2 = O)] | - . - |
| NC12CC3CC(CC(C3)C1)C2.[OH][Ge]12[O]CCN(CC[O]1)CC[O]2 [Midantanum OGC (R = OH)] | - . - |
| NC12CC3CC(CC(C3)C1)C2.[SH][Ge]12[O]CCN(CC[O]1)CC[O]2 [Midantanum OGC (R = SH)] | - . - |
| O=C1CN=C(c2ccccc2Cl)c2cc(Br)ccc2N1.[OH][Ge]12[O]CCN(CC[O]1)CC[O]2 [Phenazepamum OGC (R = OH)] | - . - |
| CCC1(c2ccccc2)C(=O)NC(=O)NC1=O.[SH][Ge]12[O]CCN(CC[O]1)CC[O]2 [Phenobarbitalum OGC(R = SH)] | - . - |

Reference: patent US6451850B1, “Bio-chemical germanium complexes with high therapeutic efficiency and wide application spectrum” (priority 2001, dated 2002)
